This note sets out measurements from patent publication EP1043319A1, “NOVEL ALKYLAMINO DERIVATIVES” (MITSUBISHI CHEMICAL CORPORATION, priority 1997, dated 1999).

Molecules are shown by their SMILES. Structures can show the parent of a compound that is named as a salt.

One assay has as its target T1, Sigma 2 (Rattus norvegicus, UniProt Q5U3Y7).
T1 sequence (Q5U3Y7 1-176): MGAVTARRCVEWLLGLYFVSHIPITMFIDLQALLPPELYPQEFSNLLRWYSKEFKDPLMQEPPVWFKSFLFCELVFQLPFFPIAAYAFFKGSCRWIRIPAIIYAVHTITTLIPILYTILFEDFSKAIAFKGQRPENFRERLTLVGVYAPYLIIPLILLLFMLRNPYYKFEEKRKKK
Assay: not given
As to conditions: read-out: Sigma 2 Ki; [^3H]-DTG 1 nM, 500 nM pentazocine, crude P2 membrane fraction from rat livers, 50 mM Tris-HCl pH 7.4, 25°C, 2 hours.
As for `N=c1sc2cc(Cl)ccc2n1CC1CCN(C[C@H](O)c2ccc(F)cc2)CC1` (racemic) [Example 3, (R,S)-1-(4-Fluorophenyl)-2-[4-(6-chloro-2-iminobenzothiazolin-3-ylmethyl)-piperidin-1-yl]ethanol dihydrochloride], the Ki came out at 35 nM.

Another assay deals with T1, Sigma 2. The experiment in a line: biochemical.
Conditions: not given
`N=c1sc2cc(Cl)ccc2n1CC1CCN(CC(=O)c2ccc(F)cc2)CC1` [Example 2, 3-[[1-[2-(4-Fluorophenyl)-2-oxoethyl]-4-piperidinyl]methyl]-6-chloro-2-iminobenzothiazoline dihydrochloride] gave a Ki of 7 nM.

`O=c1sc2cc(Br)ccc2n1CC1CCN(CC(O)c2ccc(F)cc2)CC1` (racemic) [Example 32, (R,S)-1-(4-Fluorophenyl)-2-[4-(6-bromo-2-oxobenzothiazolin-3-ylmethyl)-piperidin-1-yl]ethanol hydrochloride] gave a Ki of 4 nM.

In turn, `CN=c1sc2cc(Cl)ccc2n1CC1CCN(C[C@H](O)c2ccc(F)cc2)CC1` [Example 27, (R)-1-(4-Fluorophenyl)-2-[4-(6-chloro-2-methyliminobenzothiazolin-3-yl-methyl)piperidin-1-yl]ethanol dihydrochloride] displayed a Ki of 17 nM.

Regarding `CN=c1sc2cc(Cl)ccc2n1CC1CCN(CC(=O)c2ccc(F)cc2)CC1` [Example 4, 3-[[1-[2-(-Fluorophenyl)-2-oxoethyl]-4-piperidinyl]methyl]-6-chloro-2-methyliminobenzothiazoline dihydrochloride], the Ki is 4 nM.

The molecule `O=C(CN1CCC(Cn2c(=O)sc3ccc(Cl)cc32)CC1)c1ccc(F)cc1` [Example 39, 3-[[1-[2-(4-Fluorophenyl)-2-oxoethyl]-4-piperidinyl]methyl]-5-chloro-2-oxobenzothiazoline hydrochloride] returned a Ki of 3.1 nM.

Consider `CN=c1sc2cc(Cl)ccc2n1CC1CCN(CC(O)c2ccc(F)cc2)CC1` (racemic) [Example 5, (R,S)-1-(4-Fluorophenyl)-2-[4-(6-chloro-2-methyliminobenzothiazolin-3-yl-methyl)piperidin-1-yl]ethanol dihydrochloride], for which the affinity, expressed as Ki, was 7.2 nM.

In turn, `O=c1sc2cc([N+](=O)[O-])ccc2n1CC1CCN(CC(O)c2ccc(F)cc2)CC1` (stereo not drawn) [Example 36, 1-(4-Fluorophenyl)-2-[4-(6-nitro-2-oxobenzothiazolin-3-ylmethyl)piperidin-1-yl]ethanol hydrochloride] came in with a Ki of 31 nM.

`N=c1sc2cc(Cl)ccc2n1CC1CCN(CC(O)c2cccc(F)c2)CC1` (racemic) [Example 11, (R,S)-1-(3-Fluorophenyl)-2-[4-(6-chloro-2-iminobenzothiazolin-3-yl-methyl)piperidin-1-yl]ethanol dihydrochloride] displayed a Ki of 36 nM.

As to `N=c1sc2cc(Cl)ccc2n1CC1CCN(CC(O)C23CC4CC(CC(C4)C2)C3)CC1` (racemic) [Example 1, (R,S)-1-(1-Adamantyl)-2-[4-(6-chloro-2-iminobenzothiazolin-3-ylmethyl)piperidin-1-yl] ethanol dihydrochloride], the Ki stood at 8.7 nM.

The molecule `Cc1ccc2c(c1)sc(=N)n2CC1CCN(CC(=O)c2ccc(F)cc2)CC1` [Example 18, 3-[[1-[2-(4-Fluorophenyl)-2-oxoethyl]-4-piperidinyl]methyl]-6-methyl-2-iminobenzothiazoline dihydrochloride] returned a Ki of 23 nM.

For the molecule `O=c1sc2ccc(Cl)cc2n1CC1CCN(CC(O)c2ccc(F)cc2)CC1` (racemic) [Example 40, (R,S)-1-(4-Fluorophenyl)-2-[4-(5-chloro-2-oxobenzothiazolin-3-ylmethyl)piperidin-1-yl]ethanol hydrochloride], the Ki stood at 4.7 nM.

For the molecule `O=C(CN1CCC(Cn2c(=O)sc3cc(Br)ccc32)CC1)c1ccc(F)cc1` [Example 31, 3-[[1-[2-(4-Fluorophenyl)-2-oxoethyl]-4-piperidinyl]methyl]-6-bromo-2-oxobenzothiazoline hydrochloride], the Ki is 6.3 nM.

`N=c1sc2cc(F)ccc2n1CC1CCN(CC(=O)c2ccc(F)cc2)CC1` [Example 19, 3-[[1-[2-(4-Fluorophenyl)-2-oxoethyl]-4-piperidinyl]methyl]-6-fluoro-2-iminobenzothiazoline dihydrochloride] had a Ki of 21 nM.

As for `N=c1sc2cc(C(F)(F)F)ccc2n1CC1CCN(CC(=O)c2ccc(F)cc2)CC1` [Example 23, 3-[[1-[2-(4-Fluorophenyl)-2-oxoethyl]-4-piperidinyl]methyl]-2-imino-6-trifluoromethylbenzothiazoline dihydrochloride], the Ki is 7.3 nM.

`CN=c1sc2cc(Cl)ccc2n1CC1CCN(CC(=O)c2ccc(S(N)(=O)=O)cc2)CC1` [Example 21, 3-[[1-[2-(4-Aminosulfonylphenyl)-2-oxoethyl]-4-piperidinyl]methyl]-6-chloro-2-methyliminobenzothiazoline dihydrochloride] showed a Ki of 17 nM.

`CN=c1sc2cc(Cl)ccc2n1CC1CCN(C[C@@H](O)c2ccc(F)cc2)CC1` [Example 28, (S)-1-(4-Fluorophenyl)-2-[4-(6-chloro-2-methyliminobenzothiazolin-3-yl-methyl)piperidine-1-yl]ethanol dihydrochloride] returned a Ki of 19 nM.

Regarding `CC(=O)N=c1sc2cc(Cl)ccc2n1CC1CCN(CC(=O)c2ccc(F)cc2)CC1` [Example 9, 3-[[1-[2-(4-Fluorophenyl)-2-oxoethyl]-4-piperidinyl]methyl]-6-chloro-2-acetyliminobenzothiazoline hydrochloride], affinity was put at a Ki of 9.3 nM.

`CN=c1sc2cc(Cl)ccc2n1CC1CCN(CC(O)c2ccc(F)cc2F)CC1` (racemic) [Example 22, (R,S)-1-(2,4-Difluorophenyl)-2-[4-(6-chloro-2-methyliminobenzothiazolin-3-ylmethyl)piperidin-1-yl]ethanol dihydrochloride] had a Ki of 9.4 nM.

Turning to `CN=c1sc2cc(Cl)ccc2n1CCCCN(C)CC(O)c1ccc(F)cc1` (racemic) [Example 30, (R,S)-1-(4-Fluorophenyl)-2-[[N-[4-(6-chloro-2-methyliminobenzothiazolin-3-yl)butyl]-N-methyl]amino]ethanol dihydrochloride], the Ki came out at 25 nM.

Regarding `N=c1sc2ccccc2n1CC1CCN(CC(=O)c2ccc(F)cc2)CC1` [Example 15, 3-[[1-[2-(4-Fluorophenyl)-2-oxoethyl]-4-piperidinyl]methyl]-2-iminobenzothiazoline dihydrochloride], the Ki came out at 28 nM.

`N=c1sc2cc(Cl)ccc2n1CC1CCN(CC(O)c2ccc(F)c(F)c2)CC1` (racemic) [Example 6, (R,S)-1-(3,4-Difluorophenyl)-2-[4-(6-chloro-2-iminobenzothiazolin-3-yl-methyl)piperidin-1-yl]ethanol dihydrochloride] gave a Ki of 25 nM.

In turn, `O=C(CN1CCC(Cn2c(=O)sc3cc([N+](=O)[O-])ccc32)CC1)c1ccc(F)cc1` [Example 35, 3-[[1-[2-(4-Fluorophenyl)-2-oxoethyl]-4-piperidinyl]methyl]-6-nitro-2-oxobenzothiazoline hydrochloride] registered a Ki of 13 nM.

For the molecule `O=C(CN1CCC(Cn2c(=O)sc3cc(Cl)ccc32)CC1)c1ccc(F)cc1` [Example 33, 3-[[1-[2-(4-Fluorophenyl)-2-oxoethyl]-4-piperidinyl]methyl]-6-chloro-2-oxobenzothiazoline hydrochloride], the Ki was found to be 4.5 nM.
